Results reported in patent US20030162837A1, “Carboxyfullerenes and methods of use thereof” (priority 2002, published 2003).
pIC50: −log10 of the molar value. “And” between values parts separate entries of the source, which are not always exact repeats. Identical values can stand only once. “Also recorded” adds a separate entry of the source.

Tests used:
monkeys = conditions: mean survival 25 months; cited from earlier work
[1] = treated animals; cited from earlier work
[2] = Superoxide elimination: cytochrome c reduction (hypoxanthine/xanthine oxidase); assay type: biochemical; conditions: for pIC50: superoxide from hypoxanthine/xanthine oxidase
Experimental: (a) Superoxide was generated by oxidation of hypoxanthine by xanthine oxidase and assayed by reduction of cytochrome c (at absorbance maximum […]).
The ability of C3 to eliminate superoxide radical was assessed using three separate methods. In the first, O2 ? was generated by metabolism of hypoxanthine by xanthine oxidase (reaction 1). O2 ? production was determined by following cytochrome c reduction (absorbance max 550 nm) on a microtiter platereader as described (Quick et al., 2000). Stock solutions of cytochrome c were evaluated on a Beckman DU650 spectrophotometer to verify that that cytochrome c stock was fully oxidized prior to use, and to confirm the concentration of the stock. The reaction was run in the presence of superoxide dismutase (bovine SOD1, Sigma) to determine the non-specific reduction of cytochrome c (i.e. the rate of reaction in the absence of O2 ? ).

xanthine oxidase [3] = target: T1, xanthine oxidase (Homo sapiens, UniProt P47989); test: Xanthine oxidase metabolism of hypoxanthine (purines by HPLC); assay type: biochemical
T1 sequence (P47989 whole entry, species assumed): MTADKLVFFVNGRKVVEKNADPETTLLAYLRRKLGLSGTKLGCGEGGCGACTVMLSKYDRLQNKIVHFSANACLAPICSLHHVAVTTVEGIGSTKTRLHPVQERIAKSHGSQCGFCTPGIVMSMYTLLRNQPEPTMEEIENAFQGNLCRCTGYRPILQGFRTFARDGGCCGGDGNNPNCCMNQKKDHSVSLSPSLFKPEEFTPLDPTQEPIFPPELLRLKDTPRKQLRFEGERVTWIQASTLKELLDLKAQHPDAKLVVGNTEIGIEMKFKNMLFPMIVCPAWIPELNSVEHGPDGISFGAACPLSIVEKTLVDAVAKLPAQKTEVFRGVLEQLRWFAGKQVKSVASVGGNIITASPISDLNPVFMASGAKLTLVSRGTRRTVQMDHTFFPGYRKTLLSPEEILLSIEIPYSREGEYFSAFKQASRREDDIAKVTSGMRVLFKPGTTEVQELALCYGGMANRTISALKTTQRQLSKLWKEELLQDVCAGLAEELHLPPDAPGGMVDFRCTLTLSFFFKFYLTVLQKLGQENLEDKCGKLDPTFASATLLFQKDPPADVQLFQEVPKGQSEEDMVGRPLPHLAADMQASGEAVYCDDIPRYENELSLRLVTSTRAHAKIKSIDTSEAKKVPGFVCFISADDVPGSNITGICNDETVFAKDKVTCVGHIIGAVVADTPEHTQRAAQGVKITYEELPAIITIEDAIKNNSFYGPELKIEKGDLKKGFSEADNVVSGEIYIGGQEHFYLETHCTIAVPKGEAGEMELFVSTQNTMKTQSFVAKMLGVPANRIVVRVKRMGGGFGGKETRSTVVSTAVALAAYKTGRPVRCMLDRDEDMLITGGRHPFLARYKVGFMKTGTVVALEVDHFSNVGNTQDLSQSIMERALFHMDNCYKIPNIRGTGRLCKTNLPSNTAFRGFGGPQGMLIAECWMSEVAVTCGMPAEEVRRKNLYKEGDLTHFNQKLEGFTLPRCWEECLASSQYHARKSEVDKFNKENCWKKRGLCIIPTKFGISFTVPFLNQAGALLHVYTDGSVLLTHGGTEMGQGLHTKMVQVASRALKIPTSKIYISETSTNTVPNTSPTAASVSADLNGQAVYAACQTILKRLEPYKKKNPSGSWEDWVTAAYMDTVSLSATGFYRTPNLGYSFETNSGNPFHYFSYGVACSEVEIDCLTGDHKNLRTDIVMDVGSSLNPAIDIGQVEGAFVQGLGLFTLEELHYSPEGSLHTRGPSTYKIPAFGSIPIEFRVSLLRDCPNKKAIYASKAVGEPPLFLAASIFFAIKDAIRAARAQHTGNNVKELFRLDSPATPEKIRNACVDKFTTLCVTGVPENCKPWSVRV
Experimental: Hypoxanthine and its metabolites xanthine and uric acid were analyzed by HPLC at specific times during the xanthine oxidase: hypoxanthine reaction. The reaction was allowed to run for 40 or 100 minutes and was stopped by the addition of trifloroacetic acid (0.1% TFA) to denature xanthine oxidase. Samples were injected onto the HPLC and separated on a C18 column.

C57B6 mice = conditions: chronic treatment starting at 18 months of age; cited from earlier work
rats = rats treated from age 96 weeks through end of life; control 147+/−1; cited from earlier work
Fisher 344 rats [4] = conditions: cited from earlier work
Fisher 344 rats [5] = conditions: same dose; cited from earlier work
Drosophila = conditions: cited from earlier work
[6] = Oxygen consumption studies with H2O2 (re-evolution of oxygen); assay type: biochemical
[7] = Pharmacokinetics study in mice; assay type: in vivo
From the text: […]. […] […].

xanthine oxidase [8] = target: T1, xanthine oxidase; test: O2 consumption during the xanthine oxidase reaction (Clark-type O2 electrode); assay type: biochemical; conditions: in the presence of C3 compared with SOD
Experimental: O2 consumption during the xanthine oxidase reaction was determined using an oxymetry chamber equipped with a Clark-type O2 electrode (Hansatech, UK).

[9] = Characterization of C3 after exposure to H2O2 (HPLC, spectroscopy); assay type: physicochemical; conditions: H2O2 20-200 mM; HPLC and spectroscopy
[10] = Inhibition of pyrogallol autoxidation to purpurogallin; assay type: biochemical
Experimental: Pyrogallol autooxidation to purpurogallin was assayed as described. Briefly, Tris-cacodylic acid buffer (55.6 mM) buffer, pH 8.2, was prepared with 1 mM diethyltriaminopentaacetic acid (DTPA) (TCB solution). The pyrogallol solution contained 10 mM pyrogallol in 10 mM HCl. To 0.9 ml of TCB, 0.1 ml of pyrogallol solution was added, rapidly vortexed, and placed in the cuvette. The increase in absorbance at 420 nm was followed for 60 sec in a Beckman DU 650 spectrophotometer at room temperature. The rate of pyrogallol autoxidation in the presence of SOD (100 U/ml) was subtracted from that of the control reaction without SOD to determine the rate that was specifically due to reaction with O2 ? .

[11] = test system: C57B6NIH male and female mice; test: Longevity trial with mice (Kaplan-Meier survival, weights); assay type: in vivo
Experimental: FIG. 4 illustrates the survival curve for mice treated by the process of the instant invention vs. control. […]. The date of spontaneous death for each mouse was recorded, and used to calculate the lifespan. Lifespan of each mouse was calculated in months because mice received from the NIA rodent colony have their birth month, but not their specific birth date, recorded. Average survival was calculated for each treatment and the mean lifespans were compared using a t-test with significance set to p<0.05 (actual p=0.033). The lifespan of control mice was 23.5±5.5 months (mean±SD, n=8) and of C3-treated mice was 28.7±3.4 (mean±SD, n=9). This calculation includes one C3-treated mouse which is still alive as of Feb. 21, 2002, and whose lifespan was included as of this date. Continued survival by this mouse will further increase the average difference in lifespan, and will decrease the p value (increase the significance). […].
Twelve month old C57B6NIH male and female mice (equal numbers) were purchased from the National Institute on Aging (NIA) Aging Rodent Colony. Mice shipped from this colony were not selected in any way for health, tumors or other disabilities, and all mice obtained from the colony were subsequently enrolled in the study. Mice were randomly placed in same-sex numbered cages, two per cage, ear-punched for identification, and weighed. Mice were then trained on a rotorod twice per week for three sessions, and were then tested on the rotorod in three sessions to measure motor performance at baseline. Cages were then assigned to receive either treatment A or treatment B by an observer who was blind to what these treatments would be.
Solution A or solution B was placed in the water bottles, and solutions were topped-off twice weekly, and filtered to remove any particulates biweekly by an individual blind to the identity of the solutions. At 19 months of age, mice were weighed again, and underwent another round of rotorod training and testing. Mice were allowed to die spontaneously, and their date of death were recorded by the Animal Housing Facility staff as part of the normal operating procedure of the facility. […] When animals died, the cage number, identity of the animal, and the date of death were recorded on the death notice, which was then sent to the laboratory, where the information was entered into the database.
In addition, because longevity was increased by the oral dosing of a drug, it is the first practical method for achieving increased longevity in metazoans.

[12] = Characterization of C3 after exposure to superoxide (HPLC, mass spectrometry); assay type: physicochemical
From the text: Samples were then immediately injected onto the HPLC.
To maximize the amount of modified C3 present should structural changes occur, hexacarboxylic acid C3 and its decarboxylation products were exposed to superoxide generated by the xanthine oxidase reaction for four consecutive reactions by re-addition of the substrate, hypoxanthine. […] Compounds were extracted from the reaction mixture, and re-injected onto the HPLC. […] Peaks were collected and evaluated by mass spectrometry, but no changes in the molecular ions were observed.

Question: Which results are given for `O=CC[C@@H](O)[C@H](O)[C@H](O)CO` [2-deoxyglucose]?
Answer: lifespan of one treated monkey (monkeys): 38 months; body temperature [1]: lowered; plasma insulin levels [1]: decreased

Question: With `O=C(O)c1ccc(/C2=C3\C=CC(=N3)/C(c3ccc(C(=O)O)cc3)=c3/cc/c4[n]3[Mn]([Cl])[n]3c2ccc3/C(c2ccc(C(=O)O)cc2)=C2/C=CC(=N2)\C=4c2ccc(C(=O)O)cc2)cc1` [MnTBAP, reference compound] as the compound, how does the pIC50 [2] read?
Answer: 4.30

Question: Which “inhibition of purine metabolism” value (xanthine oxidase [3]; concentrations similar to those previously reported (data not shown)) does the source give for `O=c1[nH]c(=O)c2c[nH]nc2[nH]1` [Oxypurinol, reference compound] here?
Answer: completely inhibit

Question: Which results are given for `C#CCN(C)[C@H](C)Cc1ccccc1` [deprenyl]?
Answer: survival benefit (C57B6 mice): failed to show any survival benefit; lifespan (rats): 198+/−2 weeks; increase in longevity (Fisher 344 rats [4]; not statistically significant): 7%; mean survival (Fisher 344 rats [4]; treatment from 18 months of age, controls 28): 30 months; effect on mortality and lifespan (Fisher 344 rats [5]): greater mortality and shortened lifespan; effect on lifespan (Drosophila): did not show an increase in lifespan

Question: Which “Reaction rate (k)” value ([2]; reaction with superoxide, cytochrome c reduction) does the source give for “SOD: superoxide dismutase (bovine SOD1, Sigma) [reference compound]” here?
Answer: 2e+09 M⁻¹ s⁻¹

Question: What about the pIC50 [2] of the same compound?
Answer: 6.30

Question: With catalase [reference compound] as the compound, how does the “re-evolution of oxygen from H2O2” value [6] read?
Answer: rapid re-evolution of oxygen

Question: With e,e,e C60[C(COOH)2]3 [C3] as the compound, how does the plasma half-life ([7]; mice) read?
Answer: 8 h

Question: What about the route of clearance ([7]; mice) of the same compound?
Answer: excretion through both the liver and kidney

Question: And the “fraction of dose absorbed when given orally” value ([7]; oral (e.g. drinking water) relative to intravenous, intraperitoneal or subcutaneous)?
Answer: 1/15

Question: And the “oxygen utilization by xanthine oxidase” value (xanthine oxidase [8])?
Answer: similar

Question: What about the “structural change after exposure to H2O2” value [9] of the same compound?
Answer: No change; also recorded: no change in the size or distribution of peaks; also recorded: no permanent chemical or structural changes

Question: What about the pIC50 [10] of the same compound?
Answer: 3.44

Question: And the effect on weight ([11]; C3-treated mice)?
Answer: not accompanied by a reduction in weight

Question: What about the “lifespan (mean±SD)” value ([11]; C57B6 mice, C3 0.5 mg/kg/day in drinking water from age 12 months through end of life, n=9, control 23.5±5.5, 0.5 mg/kg/day) of the same compound?
Answer: 28.7±3.4 months and 28.7 months

Question: What about the “weight at 19 months, females” value ([11]; females, control 27±1) of the same compound?
Answer: 29+1 grams

Question: And the “weight at 19 months, males” value ([11]; males, control 35±4)?
Answer: 35±6 grams

Question: What about the “re-evolution of oxygen from H2O2” value [6] of the same compound?
Answer: significantly slower than that seen with catalase

Question: And the “inhibition of xanthine oxidase metabolism of hypoxanthine” value (xanthine oxidase [3]; 300 μM)?
Answer: < 10%

Question: What about the “inhibition of xanthine oxidase metabolism of hypoxanthine” value (xanthine oxidase [3]; 500 μM) of the same compound?
Answer: 15%

Question: And the “concentration of superoxide in the reaction” value ([2]; 500 μM)?
Answer: zero

Question: What about the pIC50 [2] of the same compound?
Answer: 3.48

Question: And the “structural change after exposure to superoxide” value [12]?
Answer: No change in the size or distribution of peaks; also recorded: no permanent chemical or structural changes
